Assay results as given in ChEMBL document CHEMBL1156714, “Microwave induced synthesis of novel 8,9-dihydro-7H-pyrimido[4,5-b][1,4]diazepines as potential antitumor agents” (2008).

What was measured:
Type in all cases: functional
K562 = assay: Growth inhibition of human K562 cells after 48 hrs by SRB assay; settings: K562, 48 h
MOLT-4 = assay: Growth inhibition of human MOLT4 cells after 48 hrs by SRB assay; settings: MOLT-4, 48 h
A549 = assay: Growth inhibition of human A549 cells after 48 hrs by SRB assay; settings: A549, 48 h
NCI-H23 = assay: Growth inhibition of human NCI-H23 cells after 48 hrs by SRB assay; settings: NCI-H23, 48 h
HCT-15 = assay: Growth inhibition of human HCT15 cells after 48 hrs by SRB assay; settings: HCT-15, 48 h
CAKI-1 = assay: Growth inhibition of human CAKI1 cells after 48 hrs by SRB assay; settings: CAKI-1, 48 h
UO-31 = assay: Growth inhibition of human UO31 cells after 48 hrs by SRB assay; settings: UO-31, 48 h
[1] = read-out: LC50 (the source's name)

With `Cc1ccc(C2=Nc3c(N)ncnc3NC(c3ccc4c(c3)OCO4)C2)cc1` (racemic) the GI50 (K562) was 4.19 µM, the LC50 (K562) was greater than 100 µM and the GI50 (MOLT-4) was 2.66 µM. For the same compound, the CC50 (MOLT-4; [1]) was greater than 100 µM, the GI50 (A549) was 7.09 µM and the LC50 (A549) was greater than 100 µM. The GI50 (NCI-H23) was 10.2 µM, the CC50 (NCI-H23; [1]) was greater than 100 µM and the GI50 (HCT-15) was 3.14 µM. The CC50 (HCT-15; [1]) was 55.2 µM, the GI50 (CAKI-1) was 1.44 µM and the CC50 (CAKI-1; [1]) was greater than 100 µM. For the same compound, the GI50 (UO-31) was 10.8 µM and the CC50 (UO-31; [1]) was 65.2 µM.
